Measurements from ChEMBL document CHEMBL3585347, “Isolation of cholinesterase and β-secretase 1 inhibiting compounds from Lycopodiella cernua” (Bioorg Med Chem, 2015).
Activity calls are given as the source filed them. No cut-off for these calls is given here.

Legend:
Acetylcholinesterase [1] = target: T1, Acetylcholinesterase (Homo sapiens, UniProt P22303); test: Inhibition of AChE (unknown origin) using acetylthiocholine as substrate assessed as substrate hydrolysis by spectrophotometric/Ellman method
T1 sequence (P22303 whole entry): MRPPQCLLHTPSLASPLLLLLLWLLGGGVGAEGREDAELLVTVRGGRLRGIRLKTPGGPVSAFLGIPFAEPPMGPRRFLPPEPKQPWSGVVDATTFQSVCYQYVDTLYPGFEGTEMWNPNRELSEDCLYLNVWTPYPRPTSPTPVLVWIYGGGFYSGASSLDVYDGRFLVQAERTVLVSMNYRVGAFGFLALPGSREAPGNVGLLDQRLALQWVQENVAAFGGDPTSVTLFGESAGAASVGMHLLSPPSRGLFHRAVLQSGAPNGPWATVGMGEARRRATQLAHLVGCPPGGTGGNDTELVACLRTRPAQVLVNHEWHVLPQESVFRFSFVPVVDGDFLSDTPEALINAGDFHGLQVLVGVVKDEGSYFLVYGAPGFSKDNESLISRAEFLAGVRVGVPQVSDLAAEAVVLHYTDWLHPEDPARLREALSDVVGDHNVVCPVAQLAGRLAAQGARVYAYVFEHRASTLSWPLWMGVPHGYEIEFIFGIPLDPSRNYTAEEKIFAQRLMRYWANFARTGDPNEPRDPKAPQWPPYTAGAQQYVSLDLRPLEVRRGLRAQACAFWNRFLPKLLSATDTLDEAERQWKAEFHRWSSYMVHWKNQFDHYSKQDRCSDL

Cholinesterase [2] = target: T2, Cholinesterase (Homo sapiens, UniProt P06276); test: Inhibition of BChE (unknown origin) using butyrylthiocholine as substrate assessed as substrate hydrolysis by spectrophotometric/Ellman method
T2 sequence (P06276 whole entry): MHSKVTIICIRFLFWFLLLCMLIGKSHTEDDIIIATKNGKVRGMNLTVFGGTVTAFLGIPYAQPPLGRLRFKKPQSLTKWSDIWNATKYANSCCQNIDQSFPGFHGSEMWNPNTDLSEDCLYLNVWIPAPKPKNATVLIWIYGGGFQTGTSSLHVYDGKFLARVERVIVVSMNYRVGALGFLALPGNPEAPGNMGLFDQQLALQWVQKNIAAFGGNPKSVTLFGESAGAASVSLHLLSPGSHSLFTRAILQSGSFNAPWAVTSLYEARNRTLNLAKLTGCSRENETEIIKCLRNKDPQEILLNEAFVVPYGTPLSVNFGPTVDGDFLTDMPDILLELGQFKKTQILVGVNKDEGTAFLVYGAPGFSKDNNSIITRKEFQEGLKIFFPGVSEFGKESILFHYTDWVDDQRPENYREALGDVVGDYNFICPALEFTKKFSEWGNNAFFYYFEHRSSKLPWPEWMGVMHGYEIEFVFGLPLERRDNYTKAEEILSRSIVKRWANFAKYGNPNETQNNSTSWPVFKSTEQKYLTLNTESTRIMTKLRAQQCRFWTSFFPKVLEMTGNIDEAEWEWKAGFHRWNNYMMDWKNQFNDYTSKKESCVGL

Beta-secretase 1 = Beta-secretase 1 (Homo sapiens, UniProt P56817); test: Inhibition of human recombinant BACE1 by fluorescence resonance energy transfer (FRET) assay
Sequence of Beta-secretase 1 (P56817 whole entry): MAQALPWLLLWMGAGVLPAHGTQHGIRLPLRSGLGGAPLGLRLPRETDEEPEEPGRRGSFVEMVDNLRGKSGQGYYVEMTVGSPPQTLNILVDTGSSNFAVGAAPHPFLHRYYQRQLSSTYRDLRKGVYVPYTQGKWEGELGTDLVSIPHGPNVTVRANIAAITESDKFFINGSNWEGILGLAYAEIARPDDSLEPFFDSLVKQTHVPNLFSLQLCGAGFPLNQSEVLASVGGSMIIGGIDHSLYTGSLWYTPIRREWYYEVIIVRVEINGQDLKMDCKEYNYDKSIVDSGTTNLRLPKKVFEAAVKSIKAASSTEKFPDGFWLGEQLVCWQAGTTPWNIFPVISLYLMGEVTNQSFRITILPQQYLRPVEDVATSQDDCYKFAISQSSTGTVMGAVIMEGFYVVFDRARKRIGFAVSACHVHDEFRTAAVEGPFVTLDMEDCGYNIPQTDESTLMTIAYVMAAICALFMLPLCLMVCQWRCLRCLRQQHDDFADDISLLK

Cholinesterase [3] = target: T2, Cholinesterase; test: Mixed type inhibition of BChE (unknown origin) by Lineweaver-Burk plot analysis
Cholinesterase [4] = target: T2, Cholinesterase; test: Inhibition of BChE (unknown origin) by Dixon plot analysis
Acetylcholinesterase [5] = target: T1, Acetylcholinesterase; test: Mixed type inhibition of AChE (unknown origin) by Lineweaver-Burk plot analysis
Acetylcholinesterase [6] = target: T1, Acetylcholinesterase; test: Inhibition of AChE (unknown origin) by Dixon plot analysis

SMILES | IC50 (Acetylcholinesterase [1]) [µM] | IC50 (Cholinesterase [2]) [µM] | IC50 (Beta-secretase 1) [µM] | inhibition (Cholinesterase [3]) | Ki (Cholinesterase [4]) [µM] | inhibition (Acetylcholinesterase [5]) | Ki (Acetylcholinesterase [6]) [µM]
COC(=O)[C@]1(C)[C@@H]2CC[C@@]3(C)CC4=CC(=O)[C@@H]5[C@](C)(CC[C@@H](O)[C@]5(C)CO)[C@H]4CC[C@@H]3[C@@]2(C)CC[C@@H]1O [LYCERNUIC KETONE A] | > 30 | > 30 | > 10 |  |  |  | 
CC1(C)[C@@H](O)CC[C@@]2(C)[C@H]1CC[C@@]1(C)C[C@@]3(O)CC[C@H]4C(C)(C)[C@@H](O)CC[C@]4(C)[C@H]3CC[C@@H]12 | > 30 | > 30 | > 10 |  |  |  | 
CC1(C)C(=O)CC[C@@]2(C)[C@H]1CC[C@@]1(C)CC3=CC(=O)[C@H]4C(C)(C)[C@H](O)CC[C@]4(C)[C@H]3CC[C@@H]12 | 10.7 | > 30 | 0.23 | Active | 4.78 |  | 
C[C@@]12CC[C@@H]3[C@](C)(CC[C@H](OC(=O)c4ccc(O)cc4)[C@]3(C)C(=O)O)[C@H]1CC[C@@H]1[C@@]3(C)CC[C@@H](O)[C@](C)(CO)[C@@H]3C[C@H](O)[C@@]1(O)C2 | > 30 | > 30 | 0.31 |  |  |  | 
CC1(C)[C@H](O)CC[C@]2(C)[C@H]3CC[C@H]4[C@@](C)(CC[C@@H]5[C@]4(C)CC[C@@H](O)[C@]5(C)C(=O)O)CC3=CC(=O)[C@@H]12 | > 30 | > 30 | > 10 |  |  |  | 
C[C@@]12CC[C@@H]3[C@](C)(CC[C@H](OC(=O)/C=C/c4ccc(O)cc4)[C@]3(C)C(=O)O)[C@H]1CC[C@H]1C(=CC[C@@H]3[C@]1(C)CC[C@@H](O)[C@]3(C)CO)C2 | > 30 | > 30 | 1.07 |  |  |  | 
CC(=O)O[C@H]1CC[C@@]2(C)[C@@H](CC[C@@]3(C)C[C@@]4(O)CC[C@H]5C(C)(C)[C@@H](OC(C)=O)CC[C@]5(C)[C@H]4CC[C@@H]32)C1(C)C | 0.91 | > 30 | > 10 |  |  | Active | 2.49
C[C@@]12CC[C@@H]3[C@](C)(CC[C@H](OC(=O)CCc4ccc(O)cc4)[C@]3(C)C(=O)O)[C@H]1CC[C@H]1C(=CC[C@@H]3[C@]1(C)CC[C@@H](O)[C@]3(C)CO)C2 | 1.69 | 0.42 | > 10 |  | 0.99 | Active | 7.97
CC1(C)[C@H](O)CC[C@@]2(C)[C@H]1CC[C@@]1(C)CC3=CC[C@H]4C(C)(C)[C@H](O)CC[C@]4(C)[C@H]3CC[C@@H]12 | > 30 | > 30 | > 10 |  |  |  | 
CC1(C)[C@H](O)CC[C@@]2(C)[C@H]1CC[C@@]1(C)CC3=CC[C@H]4C(C)(C)[C@@H](O)CC[C@]4(C)[C@H]3CC[C@@H]12 | > 30 | 1.37 | > 10 | Active | 4.88 |  | 
CCCC[C@@H](O)/C=C/C=C/C(=O)O | 0.22 | > 30 | 6.91 |  |  | Active | 1.17
C[C@@]12CC[C@@H]3[C@](C)(CC[C@H](O)[C@]3(C)C(=O)O)[C@H]1CC[C@H]1C(=CC(=O)[C@@H]3[C@]1(C)CC[C@@H](O)[C@]3(C)CO)C2 | > 30 | > 30 | > 10 |  |  |  | 
COc1ccc(C(=O)O[C@H]2CC[C@@]3(C)[C@@H](CC[C@@]4(C)C[C@@]5(O)[C@H](CC[C@@H]43)[C@@]3(C)CC[C@@H](O)C(C)(C)[C@@H]3C[C@@H]5O)[C@@]2(C)C(=O)O)cc1O | 9.98 | > 30 | 0.98 |  |  |  | 
